Patent US6124322A, “Intravenous form of thalidomide for treating immunological diseases” (Gruenenthal GmbH, priority 1997, dated 2000)
Converted amounts (≈) assume the structure as drawn.

Tests used:
[1] = test system: cutaneous lupus erythematosus, pyoderma gangrenosum, orogenital ulcers with morbus Behcet, ulcerations in HIV-infected patients; conditions: cited from earlier work
aphthous stomatitis = conditions: treatment of aphthous stomatitis; cited from earlier work
[2] = hydrolysis in aqueous solution; format: physicochemical; conditions: aqueous solutions, pH not restricted
Description: The enantiomers of thalidomide have a solubility in water which is higher by a factor of 6 than that of the racemate.

[3] = Arch. Pharm. 321, 371 (1988); cited from earlier work

O=C1CCC(N2C(=O)c3ccccc3C2=O)C(=O)N1 (racemic) [thalidomide]
efficacy without general immunosuppression [1]: good efficacy without resulting in a general immunosuppression
efficacy in aphthous stomatitis versus classical immunosuppressants (aphthous stomatitis): superior to classical immunosuppressants
hydrolysis in aqueous solution [2]: tendency of thalidomide to undergo spontaneous hydrolysis
solubility in water [3]: 12 µg/mL (≈ 46.5 µM)
